Test results as given in US20250034216A1, “STEREOSELECTIVE COVALENT LIGANDS FOR ONCOGENIC AND IMMUNOLOGICAL PROTEINS” (The Scripps Research Institute, priority 2021, published 2025).

What was measured:
Assay in all cases: IA-DTB cysteine engagement
Format in all cases: binding
WDR45B_C63 = biological target: T1, WDR45B_C63 (Homo sapiens, UniProt Q5MNZ6); details: 22Rv1 cells, 20 μM probe, 1 h, relative to DMSO
T1 construct: endogenous in cells; host or cells: 22Rv1
In short: (§1)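 Probe-exposed cells were lysed, IA-DTB-labeled, trypsinized and streptavidin-enriched. Multiplexed TMT quantitation gave engagement ratios versus DMSO, with non-tryptic peptides excluded and intensities normalized to median summed signal.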

LMF2_C659 = biological target: T2, LMF2_C659 (Homo sapiens, UniProt Q9BU23); details: 22Rv1 cells, 20 μM probe, 1 h, relative to DMSO
T2 construct: endogenous in cells; host or cells: 22Rv1
T2 sequence (Q9BU23 1-707): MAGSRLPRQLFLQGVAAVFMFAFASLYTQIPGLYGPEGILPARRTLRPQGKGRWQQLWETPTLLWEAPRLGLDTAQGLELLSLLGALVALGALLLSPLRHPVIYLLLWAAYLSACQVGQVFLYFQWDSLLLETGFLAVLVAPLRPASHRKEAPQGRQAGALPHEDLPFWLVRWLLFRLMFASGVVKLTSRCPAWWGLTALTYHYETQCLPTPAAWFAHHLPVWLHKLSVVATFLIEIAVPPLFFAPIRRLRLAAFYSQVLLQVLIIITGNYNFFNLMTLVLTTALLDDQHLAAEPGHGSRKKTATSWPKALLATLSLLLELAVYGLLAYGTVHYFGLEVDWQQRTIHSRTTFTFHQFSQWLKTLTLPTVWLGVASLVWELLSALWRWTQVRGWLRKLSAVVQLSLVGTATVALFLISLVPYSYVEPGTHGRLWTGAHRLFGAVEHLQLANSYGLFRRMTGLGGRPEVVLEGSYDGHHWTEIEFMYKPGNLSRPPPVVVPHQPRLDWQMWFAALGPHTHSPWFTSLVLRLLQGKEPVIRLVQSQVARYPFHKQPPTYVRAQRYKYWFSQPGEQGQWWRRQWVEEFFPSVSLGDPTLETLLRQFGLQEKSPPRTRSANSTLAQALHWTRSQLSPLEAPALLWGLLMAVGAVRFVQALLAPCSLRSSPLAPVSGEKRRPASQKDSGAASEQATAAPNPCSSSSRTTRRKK
In short: as §1

C3orf33_C275 = biological target: T3, C3orf33_C275 (Homo sapiens, UniProt Q6P1S2); details: 22Rv1 cells, 20 μM probe, 1 h, relative to DMSO
T3 construct: endogenous in cells; host or cells: 22Rv1
T3 sequence (Q6P1S2 1-294): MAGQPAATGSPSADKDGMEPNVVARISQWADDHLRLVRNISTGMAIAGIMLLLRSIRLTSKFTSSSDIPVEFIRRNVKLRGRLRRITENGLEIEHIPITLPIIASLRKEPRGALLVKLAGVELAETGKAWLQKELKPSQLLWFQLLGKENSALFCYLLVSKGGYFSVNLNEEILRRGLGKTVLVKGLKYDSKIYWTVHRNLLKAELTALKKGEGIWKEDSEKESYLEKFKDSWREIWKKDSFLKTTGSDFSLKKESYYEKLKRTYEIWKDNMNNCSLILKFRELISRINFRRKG
In short: as §1

HMOX2_C282 = biological target: T4, HMOX2_C282 (Homo sapiens, UniProt P30519); details: 22Rv1 cells, relative to DMSO; for % engagement HMOX2_C282: 20 μM probe, 1 h; for % engagement HMOX2_282: 5 μM probe, 1 h (FIG. 5B)
T4 construct: endogenous in cells; host or cells: 22Rv1
T4 sequence (P30519 1-316): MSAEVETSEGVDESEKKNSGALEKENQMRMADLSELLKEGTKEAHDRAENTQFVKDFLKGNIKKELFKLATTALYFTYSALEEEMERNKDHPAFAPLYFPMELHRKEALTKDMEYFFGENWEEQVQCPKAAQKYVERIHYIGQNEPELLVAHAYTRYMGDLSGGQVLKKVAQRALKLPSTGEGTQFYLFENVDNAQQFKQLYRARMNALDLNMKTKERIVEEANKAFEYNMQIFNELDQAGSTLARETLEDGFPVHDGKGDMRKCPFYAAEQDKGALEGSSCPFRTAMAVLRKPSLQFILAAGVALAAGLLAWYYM
In short: as §1

NUP205_C224 = biological target: T5, NUP205_C224 (Homo sapiens, UniProt Q92621); details: 22Rv1 cells, 20 μM probe, 1 h, relative to DMSO
T5 construct: endogenous in cells; host or cells: 22Rv1
In short: as §1

T5 sequence (Q92621 whole entry): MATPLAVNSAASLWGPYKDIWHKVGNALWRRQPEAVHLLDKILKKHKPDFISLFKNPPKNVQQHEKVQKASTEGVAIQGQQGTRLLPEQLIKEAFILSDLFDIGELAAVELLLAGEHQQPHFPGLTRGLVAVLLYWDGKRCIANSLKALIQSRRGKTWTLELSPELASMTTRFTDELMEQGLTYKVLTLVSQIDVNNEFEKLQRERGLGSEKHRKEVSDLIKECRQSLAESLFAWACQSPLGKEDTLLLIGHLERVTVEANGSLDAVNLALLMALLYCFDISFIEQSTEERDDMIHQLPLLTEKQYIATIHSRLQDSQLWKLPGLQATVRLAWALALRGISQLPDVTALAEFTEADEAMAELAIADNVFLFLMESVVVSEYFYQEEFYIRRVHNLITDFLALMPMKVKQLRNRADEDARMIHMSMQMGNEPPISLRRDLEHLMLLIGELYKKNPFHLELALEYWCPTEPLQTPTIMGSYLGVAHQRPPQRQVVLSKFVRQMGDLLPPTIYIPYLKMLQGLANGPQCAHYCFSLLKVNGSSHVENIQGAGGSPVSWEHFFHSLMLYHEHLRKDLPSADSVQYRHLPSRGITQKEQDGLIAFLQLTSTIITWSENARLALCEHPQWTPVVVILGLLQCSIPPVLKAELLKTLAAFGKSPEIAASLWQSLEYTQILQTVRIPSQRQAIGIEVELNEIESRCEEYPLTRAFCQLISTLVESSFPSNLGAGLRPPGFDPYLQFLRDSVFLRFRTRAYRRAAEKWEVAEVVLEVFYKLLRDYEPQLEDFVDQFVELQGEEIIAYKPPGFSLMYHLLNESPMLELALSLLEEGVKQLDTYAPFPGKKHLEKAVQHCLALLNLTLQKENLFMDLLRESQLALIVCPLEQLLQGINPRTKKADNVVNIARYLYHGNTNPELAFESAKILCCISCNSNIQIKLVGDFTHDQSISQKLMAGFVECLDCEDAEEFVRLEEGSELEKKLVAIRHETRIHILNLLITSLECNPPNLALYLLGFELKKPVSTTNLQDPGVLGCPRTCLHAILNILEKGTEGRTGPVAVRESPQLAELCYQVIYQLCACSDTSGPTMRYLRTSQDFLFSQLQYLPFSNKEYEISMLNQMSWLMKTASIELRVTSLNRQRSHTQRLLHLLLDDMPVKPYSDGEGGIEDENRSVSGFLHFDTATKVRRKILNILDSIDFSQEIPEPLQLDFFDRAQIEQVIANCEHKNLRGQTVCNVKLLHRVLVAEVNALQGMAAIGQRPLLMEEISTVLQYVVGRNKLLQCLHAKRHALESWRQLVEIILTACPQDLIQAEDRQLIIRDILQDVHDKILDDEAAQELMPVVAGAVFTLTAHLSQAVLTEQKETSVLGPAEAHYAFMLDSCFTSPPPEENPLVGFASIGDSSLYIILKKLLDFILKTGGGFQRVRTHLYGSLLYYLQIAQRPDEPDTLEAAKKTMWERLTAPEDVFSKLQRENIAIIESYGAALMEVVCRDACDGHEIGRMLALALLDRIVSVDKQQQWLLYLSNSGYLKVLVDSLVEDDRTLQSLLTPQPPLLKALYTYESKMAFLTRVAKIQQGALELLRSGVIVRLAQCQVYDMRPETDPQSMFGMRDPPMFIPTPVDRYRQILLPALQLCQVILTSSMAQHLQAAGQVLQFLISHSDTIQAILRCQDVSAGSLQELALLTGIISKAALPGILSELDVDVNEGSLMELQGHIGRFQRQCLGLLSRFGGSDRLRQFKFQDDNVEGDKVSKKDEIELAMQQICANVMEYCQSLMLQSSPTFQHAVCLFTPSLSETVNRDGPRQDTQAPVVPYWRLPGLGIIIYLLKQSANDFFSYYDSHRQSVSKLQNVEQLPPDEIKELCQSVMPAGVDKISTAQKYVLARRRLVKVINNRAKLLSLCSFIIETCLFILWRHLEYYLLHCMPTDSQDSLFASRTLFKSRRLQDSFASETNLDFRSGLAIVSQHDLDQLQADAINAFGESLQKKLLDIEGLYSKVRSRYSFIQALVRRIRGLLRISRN
T1 sequence (Q5MNZ6 whole entry): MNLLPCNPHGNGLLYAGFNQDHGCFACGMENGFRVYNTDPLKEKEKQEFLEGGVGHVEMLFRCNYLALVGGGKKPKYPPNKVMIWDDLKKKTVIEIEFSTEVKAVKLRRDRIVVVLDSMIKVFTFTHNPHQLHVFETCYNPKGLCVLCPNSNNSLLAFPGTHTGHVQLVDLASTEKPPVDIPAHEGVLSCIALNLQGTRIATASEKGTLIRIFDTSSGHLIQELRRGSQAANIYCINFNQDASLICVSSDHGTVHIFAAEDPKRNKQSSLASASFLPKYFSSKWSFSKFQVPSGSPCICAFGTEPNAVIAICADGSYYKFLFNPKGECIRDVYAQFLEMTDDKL

Row | % engagement WDR45B_C63 (WDR45B_C63) [%] | % engagement LMF2_C659 (LMF2_C659) [%] | % engagement C3orf33_C275 (C3orf33_C275) [%] | % engagement HMOX2_C282 (HMOX2_C282) [%] | % engagement NUP205_C224 (NUP205_C224) [%] | % engagement HMOX2_282 (HMOX2_C282) [%] | Compound
1 | 86.75 | 69.25 | 84 | 97.75 | 30.5 |  | C=CC(=O)N1C[C@H](c2ccc(Br)cc2)[C@H]1C(=O)Nc1cccc2cccnc12 [MY-3B, (2S,3S)-1-acryloyl-3-(4-bromophenyl)-N-(quinolin-8-yl)azetidine-2-carboxamide]
2 |  |  |  |  |  | 92.13 | CC#CC(=O)N1C[C@H](c2ccc(Br)cc2)[C@@H]1C(=O)Nc1cccc2cccnc12 [MY-45B, (2R,3S)-3-(4-bromophenyl)-1-(but-2-ynoyl)-N-(quinolin-8-yl)azetidine-2-carboxamide]
3 | 7.25 | 65.75 | 83 | 96.25 | 6 | 94.00 | C=CC(=O)N1C[C@H](c2ccc(Br)cc2)[C@@H]1C(=O)Nc1cccc2cccnc12 [MY-1B, (2R,3S)-1-acryloyl-3-(4-bromophenyl)-N-(quinolin-8-yl)azetidine-2-carboxamide]
4 | 0 | 44.75 | 85 | 96.25 | 100 |  | C=CC(=O)N1C[C@H](c2ccc(Br)cc2)[C@H]1C(=O)Nc1cccc2cccnc12 [MY-3A, (2S,3S)-1-acryloyl-3-(4-bromophenyl)-N-(quinolin-8-yl)azetidine-2-carboxamide]
5 | 52.25 | 66 | 83.5 | 93.5 | 28.5 |  | C=CC(=O)N1C[C@@H](c2ccc(Br)cc2)[C@H]1C(=O)Nc1cccc2cccnc12 [MY-1A, (2S,3R)-1-acryloyl-3-(4-bromophenyl)-N-(quinolin-8-yl)azetidine-2-carboxamide]
